Measured values reported in PubChem BioAssay AID2060910 (Molecular Pharmacology Branch, DTP, NCI, 2025).
pIC50: −log10 of the molar value. One block for each molecule: values may come before it.

Tested on: 242566-281-R-J2-PDC complex spheroid viability
Assay: Anticancer human tumor 242566-281-R-J2-PDC patient-derived pancreatic carcinoma cell line growth inhibition [RAS]
Conditions: for pIC50: curve of first compound; for viability, T/C: stronger effect = lower value
Outline: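 Tumour cells grown as complex spheroids with HUVEC endothelial cells and mesenchymal stem cells, treated with RAS pathway inhibitor combinations. Each agent spans half-log steps from near clinical Cmax, or 10 microM where Cmax is unknown.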

[1] = second compound 0.000949 µM, first compound 0.0316 µM
[2] = second compound 0.000949 µM, first compound 0.1 µM
[3] = second compound 0.000949 µM, first compound 0.316 µM
[4] = second compound 0.000949 µM, first compound 1 µM
[5] = second compound 0.000949 µM, first compound 3.16 µM
[6] = second compound 0.000949 µM, first compound 10 µM
[7] = second compound 0.003 µM, first compound 0.0316 µM
[8] = second compound 0.003 µM, first compound 0.1 µM
[9] = second compound 0.003 µM, first compound 0.316 µM
[10] = second compound 0.003 µM, first compound 1 µM
[11] = second compound 0.003 µM, first compound 3.16 µM
[12] = second compound 0.003 µM, first compound 10 µM
[13] = second compound 0.00949 µM, first compound 0.0316 µM
[14] = second compound 0.00949 µM, first compound 0.1 µM
[15] = second compound 0.00949 µM, first compound 0.316 µM
[16] = second compound 0.00949 µM, first compound 1 µM
[17] = second compound 0.00949 µM, first compound 3.16 µM
[18] = second compound 0.00949 µM, first compound 10 µM
[19] = second compound 0.03 µM, first compound 0.0316 µM
[20] = second compound 0.03 µM, first compound 0.1 µM
[21] = second compound 0.03 µM, first compound 0.316 µM
[22] = second compound 0.03 µM, first compound 1 µM
[23] = second compound 0.03 µM, first compound 3.16 µM
[24] = second compound 0.03 µM, first compound 10 µM
[25] = second compound 0.0949 µM, first compound 0.0316 µM
[26] = second compound 0.0949 µM, first compound 0.1 µM
[27] = second compound 0.0949 µM, first compound 0.316 µM
[28] = second compound 0.0949 µM, first compound 1 µM
[29] = second compound 0.0949 µM, first compound 3.16 µM
[30] = second compound 0.0949 µM, first compound 10 µM
[31] = second compound 0.3 µM, first compound 0.0316 µM
[32] = second compound 0.3 µM, first compound 0.1 µM
[33] = second compound 0.3 µM, first compound 0.316 µM
[34] = second compound 0.3 µM, first compound 1 µM
[35] = second compound 0.3 µM, first compound 3.16 µM
[36] = second compound 0.3 µM, first compound 10 µM
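Note: spheroids exposed to compound for 7 days before readout.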
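Throughout, for viability, T/C: 100% = DMSO vehicle control wells.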

- pIC50 (second compound 0.000949 µM): 5.20
- pIC50 (second compound 0.003 µM): 5.31
- pIC50 (second compound 0.00949 µM): 7.50
- pIC50 (second compound 0.03 µM): > 7.50
- pIC50 (second compound 0.0949 µM): > 7.50
- pIC50 (second compound 0.3 µM): > 7.50
SMILES: CC1(O)CCCC1n1c(=O)c(C(F)F)cc2cnc(NC3CCN(S(C)(=O)=O)CC3)nc21 (centres undefined) + CCn1c(-c2cc(N3CCN(C)CC3)cnc2C(C)OC)c2c3cc(ccc31)-c1csc(n1)CC(NC(=O)C1CC1C)C(=O)N1CCCC(N1)C(=O)OCC(C)(C)C2
- viability, T/C [1]: 85.7%
- viability, T/C [2]: 84%
- viability, T/C [3]: 72.8%
- viability, T/C [4]: 98.9%
- viability, T/C [5]: 98.1%
- viability, T/C [6]: 25.2%
- viability, T/C [7]: 73%
- viability, T/C [8]: 58.6%
- viability, T/C [9]: 64.7%
- viability, T/C [10]: 73.3%
- viability, T/C [11]: 82.5%
- viability, T/C [12]: 17.2%
- viability, T/C [13]: 43.7%
- viability, T/C [14]: 42.2%
- viability, T/C [15]: 49.5%
- viability, T/C [16]: 51.4%
- viability, T/C [17]: 53.2%
- viability, T/C [18]: 14.7%
- viability, T/C [19]: 25.7%
- viability, T/C [20]: 28.7%
- viability, T/C [21]: 30.8%
- viability, T/C [22]: 35.6%
- viability, T/C [23]: 30.7%
- viability, T/C [24]: 18.1%
- viability, T/C [25]: 23.1%
- viability, T/C [26]: 23.8%
- viability, T/C [27]: 22%
- viability, T/C [28]: 28.7%
- viability, T/C [29]: 22.5%
- viability, T/C [30]: 15.1%
- viability, T/C [31]: 18%
- viability, T/C [32]: 18.6%
- viability, T/C [33]: 20.5%
- viability, T/C [34]: 23.6%
- viability, T/C [35]: 26.8%
- viability, T/C [36]: 14.1%

- pIC50 (second compound 0.000949 µM): 5.58
- pIC50 (second compound 0.003 µM): 5.69
- pIC50 (second compound 0.00949 µM): > 7.50
- pIC50 (second compound 0.03 µM): > 7.50
- pIC50 (second compound 0.0949 µM): > 7.50
- pIC50 (second compound 0.3 µM): > 7.50
SMILES: CCC(CC)c1cc(NC2CCC(N)C2)n2nccc2n1 (centres undefined) + CCn1c(-c2cc(N3CCN(C)CC3)cnc2C(C)OC)c2c3cc(ccc31)-c1csc(n1)CC(NC(=O)C1CC1C)C(=O)N1CCCC(N1)C(=O)OCC(C)(C)C2
- viability, T/C [1]: 90.9%
- viability, T/C [2]: 88.3%
- viability, T/C [3]: 77.8%
- viability, T/C [4]: 90.1%
- viability, T/C [5]: 42.9%
- viability, T/C [6]: 1.28%
- viability, T/C [7]: 80.1%
- viability, T/C [8]: 74.2%
- viability, T/C [9]: 65.4%
- viability, T/C [10]: 74.9%
- viability, T/C [11]: 35.5%
- viability, T/C [12]: 1.04%
- viability, T/C [13]: 50.9%
- viability, T/C [14]: 39.1%
- viability, T/C [15]: 45.9%
- viability, T/C [16]: 45.8%
- viability, T/C [17]: 18.8%
- viability, T/C [18]: 1.43%
- viability, T/C [19]: 32.2%
- viability, T/C [20]: 29.8%
- viability, T/C [21]: 27.9%
- viability, T/C [22]: 29.8%
- viability, T/C [23]: 7.89%
- viability, T/C [24]: 2.28%
- viability, T/C [25]: 22.3%
- viability, T/C [26]: 21%
- viability, T/C [27]: 23.2%
- viability, T/C [28]: 24.5%
- viability, T/C [29]: 8.03%
- viability, T/C [30]: 1.49%
- viability, T/C [31]: 20.7%
- viability, T/C [32]: 19.7%
- viability, T/C [33]: 20.5%
- viability, T/C [34]: 20.9%
- viability, T/C [35]: 6.77%
- viability, T/C [36]: 1.47%
